Measurements reported in patent US20060024661A1, “Modulation of CRF potentiation of NMDA receptor currents via CRF receptor 2” (The Regents of the University of California, priority 2003, published 2006).
“Also recorded” adds a separate entry of the source. Where no end group is shown, it is not given here.

Tests used:
[1] = system: NMDAR-mediated EPSCs in VTA dopamine neurons; test: NMDAR-mediated EPSCs, whole-cell voltage-clamp in VTA slices; type: cell-based, mice; details: for potentiation of NMDAR-mediated EPSCs: +40 mV
Description: VTA slices from 21-29 day old C57 mice (Charles River) were prepared as previously described (Ungless et al. (2001). Nature 411: 584-587). Briefly, mice were anesthetized with halothane and then decapitated. A block of tissue containing midbrain was sliced in the horizontal plane (230 μm) in ice-cold low Ca^2+ solution (containing in mM: 126 NaCl, 1.6 KCl, 1.2 NaH2PO4, 1.2 MgCl2, 0.625 CaCl2, 18 NaHCO3 and 11 glucose). Slices were transferred to a holding chamber containing artificial cerebrospinal fluid (ACSF, in mM: 126 NaCl, 1.6 KCl, 1.2 NaH2PO4, 1.2 MgCl2, 2.5 CaCl2, 18 NaHCO3 and 11 glucose) and equilibrated at 31-34° C. for at least 1 h. Picrotoxin (100 μM) was added to the ACSF for recording, to block GABAA receptor-mediated inhibitory postsynaptic potentials. All solutions were aerated with 95% O2/5% CO2, and perfused over the slice at a rate of 2.5 ml/min. Cells were visualized with an upright microscope using infrared differential interference contrast (IR-DIC) illumination and whole-cell voltage-clamp recordings were made with an Axopatch 1D amplifier (Axon Instruments). Electrodes (2-4 MΩ) contained in mM: 117 cesium methansulfonic acid, 20 HEPES, 0.4 EGTA, 2.8 NaCl, 5 TEA-Cl, 2.5 MgATP, 0.25 MgGTP, pH 7.2-7.4, 275-285 mOsm. Dopamine cells were identified by the presence of an Ih current. A bipolar stimulating electrode was placed 100-300 μm rostral to the recording electrode and was used to stimulate excitatory afferents at 0.1 Hz. Neurons were voltage-clamped at +40 mV. Coronal hippocampal slices were also prepared and maintained in a similar manner. Extracellular field potentials were recorded in the CA1 region and evoked by stimulating the stratum radiatum. All drugs were obtained from Sigma, except human/rat CRF (Tocris), Antisauvagine-30 (PolyPeptide) and CP-154,526 (a generous gift from Pfizer). CRF fragment (6-33), ovine CRF, Antisauvagine-30, CP-154,526, U-73122 and Urocortin were first dissolved in DMSO (final concentration 0.1%). EPSCs were filtered at 2 kHz, digitized at 5-10 kHz and stored using Igor Pro software (Wavemetrics). AMPAR-mediated EPSCs were recorded at −70 mV; NMDAR-mediated EPSCs were recorded at +40 mV and measured 20 msec after the stimulation artifact when the EPSC is primarily NMDAR-mediated (11,13). Statistical significance was assessed using ANOVA on 5 min bins of EPSCs, and post hoc Fisher's LSD where appropriate.
We measured excitatory postsynaptic currents (EPSCs) recorded in putative dopamine neurons in midbrain slices from mice. EPSCs were evoked while holding neurons in voltage-clamp at +40 mV; measurements were taken at a time point when the EPSC is purely NMDA-receptor-mediated (see Methods) (Bonci and Malenka (1999). J Neurosci. 19: 3723-3730; Ungless et al. (2001). Nature 411: 584-587). […] To facilitate our subsequent investigation of the effects of CRF, we therefore sought to identify a characteristic that might help us determine, a priori, to which group a particular neuron belongs. […] We noticed that, typically, neurons that responded to CRF had large Ih currents (FIG. 1B). […] Henceforth, all subsequent experiments were conducted on cells with an Ih greater than 100 pA.

CRF-R1 = biological target: T1, CRF-R1 (Homo sapiens, UniProt P34998); details: in words; cited from earlier work
T1 sequence (P34998 24-415): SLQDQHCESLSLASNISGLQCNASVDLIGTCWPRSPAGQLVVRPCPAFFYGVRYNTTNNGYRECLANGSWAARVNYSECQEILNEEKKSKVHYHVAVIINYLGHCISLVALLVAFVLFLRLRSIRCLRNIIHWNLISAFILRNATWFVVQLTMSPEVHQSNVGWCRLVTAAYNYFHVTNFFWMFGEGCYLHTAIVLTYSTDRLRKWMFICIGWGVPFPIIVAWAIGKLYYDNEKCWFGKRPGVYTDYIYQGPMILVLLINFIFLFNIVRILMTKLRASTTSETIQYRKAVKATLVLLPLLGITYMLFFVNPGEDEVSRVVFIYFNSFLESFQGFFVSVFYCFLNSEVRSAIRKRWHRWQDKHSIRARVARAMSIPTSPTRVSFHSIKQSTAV

CRF-BP = biological target: T2, CRF-BP (Homo sapiens, UniProt P24387); details: in words; cited from earlier work
T2 sequence (P24387 25-322): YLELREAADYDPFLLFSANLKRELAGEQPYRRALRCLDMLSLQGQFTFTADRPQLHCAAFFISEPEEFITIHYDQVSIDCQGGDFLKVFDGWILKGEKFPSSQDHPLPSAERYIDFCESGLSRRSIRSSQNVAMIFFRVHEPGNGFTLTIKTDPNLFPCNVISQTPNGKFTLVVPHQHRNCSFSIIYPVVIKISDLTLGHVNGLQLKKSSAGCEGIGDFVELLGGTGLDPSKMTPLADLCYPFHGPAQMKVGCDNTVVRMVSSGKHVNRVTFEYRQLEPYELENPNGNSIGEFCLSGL

cAMP in Ltk- cells = details: CRF 1 μM; Lovenberg et al. 1995; cited from earlier work
[2] = system: field potentials in hippocampus CA1 (CRF-R1 mediated); test: Extracellular field potentials in hippocampal slices (CA1); type: cell-based, mice
Source text: A bipolar stimulating electrode was placed 100-300 μm rostral to the recording electrode and was used to stimulate excitatory afferents at 0.1 Hz.

[3] = system: AMPAR-mediated EPSCs in VTA dopamine neurons; test: AMPAR-mediated EPSCs, whole-cell voltage-clamp in VTA slices; type: cell-based, mice; details: CRF 1 μM; voltage-clamp at -70 mV; n=4
Description: VTA slices from 21-29 day old C57 mice (Charles River) were prepared as previously described (Ungless et al. (2001). Nature 411: 584-587). Briefly, mice were anesthetized with halothane and then decapitated. A block of tissue containing midbrain was sliced in the horizontal plane (230 μm) in ice-cold low Ca^2+ solution (containing in mM: 126 NaCl, 1.6 KCl, 1.2 NaH2PO4, 1.2 MgCl2, 0.625 CaCl2, 18 NaHCO3 and 11 glucose). Slices were transferred to a holding chamber containing artificial cerebrospinal fluid (ACSF, in mM: 126 NaCl, 1.6 KCl, 1.2 NaH2PO4, 1.2 MgCl2, 2.5 CaCl2, 18 NaHCO3 and 11 glucose) and equilibrated at 31-34° C. for at least 1 h. Picrotoxin (100 μM) was added to the ACSF for recording, to block GABAA receptor-mediated inhibitory postsynaptic potentials. All solutions were aerated with 95% O2/5% CO2, and perfused over the slice at a rate of 2.5 ml/min. […] Extracellular field potentials were recorded in the CA1 region and evoked by stimulating the stratum radiatum. […] AMPAR-mediated EPSCs were recorded at −70 mV; NMDAR-mediated EPSCs were recorded at +40 mV and measured 20 msec after the stimulation artifact when the EPSC is primarily NMDAR-mediated (11,13). Statistical significance was assessed using ANOVA on 5 min bins of EPSCs, and post hoc Fisher's LSD where appropriate. […]

NMDARs = details: derived from cell lines; Patneau and Mayer 1990; cited from earlier work
[4] = peptide bath applied 1 μM for 8 min, large Ih (CRF-responding) dopamine neurons
[5] = peptide 1 μM for 8 min, small Ih (non-responding) dopamine neurons

**Q.** Which “potentiation of NMDAR-mediated EPSCs” value [1, 4] does the source give for “Urocortin II: CRF-like peptide binding selectively to CRF-R2 (IVLSLDVPIGLLQILLEQARARAAREQATTNARILARVGHC; ends and bridges not checked; UniProt Q96RP3 72-112, looked up)” here?
**A.** The value was “no potentiation; also recorded: does not potentiate”.

**Q.** What about the “affinity for CRF-R1” value (CRF-R1) of the same molecule?
**A.** The value was “low affinity”.

**Q.** And the “affinity for CRF-BP” value (CRF-BP)?
**A.** The value was “low affinity”.

**Q.** For `Nc1ncnc2c1ncn2[C@@H]1O[C@@H]2CO[P@@](O)(=S)O[C@H]2[C@H]1O` [Rp-cAMPs], which “block of CRF-induced potentiation of NMDAR-mediated EPSCs” value (shortened to “block”) ([1]; Rp-cAMPs 100 μM in patch pipette, CRF 1 μM, n=4) is on record?
**A.** Its value is “still observed a significant potentiation; also recorded: is not blocked”.

**Q.** With Antisauvagine-30 as the molecule, how does the “NMDAR-mediated EPSC size vs. baseline with CRF in presence of antagonist” value ([1]; Antisauvagine-30 30 nM, CRF 1 μM, 15 mins after CRF onset, n=3, P>0.05) read?
**A.** The value was 113.9±17.7%.

**Q.** What about the “block” value ([1]; Antisauvagine-30 1M for 15 min (so in the source), CRF 1 μM, n=5) of the same molecule?
**A.** Its value is “inhibited; also recorded: blocks”.

**Q.** What does the source list for “Urocortin: CRF-like peptide, possible endogenous CRF-R2 ligand, also binds CRF-BP (DNPSLSIDLTFHLLRTLLELARTQSQRERAEQNRIIFDSV; ends and bridges not checked; UniProt P55089 83-122, looked up)”?
**A.** potentiation of NMDAR-mediated EPSCs [1, 5]: not; potentiation of NMDAR-mediated EPSCs [1, 4]: potentiation; also recorded: potentiates; affinity for CRF-R1 (CRF-R1): slightly lower affinity than CRF-R2; affinity for CRF-BP (CRF-BP): higher affinity than CRF

**Q.** With “CRF: Corticotrophin-releasing factor, a 41 amino acid peptide; human/rat CRF (Tocris) (SEEPPISLDLTFHLLREVLEMARAEQLAQQAHSNRKLMEII)” as the molecule, how does the “activation of cAMP” value (cAMP in Ltk- cells) read?
**A.** Its value is “maximal activation”.

**Q.** What about the “NMDAR-mediated EPSC size vs. baseline” value ([1]; CRF 100 nM, 25 mins after CRF onset, n=6, P<0.05) of the same molecule?
**A.** Its value is 128.01±15.7%.

**Q.** And the “potentiation of NMDAR-mediated EPSCs” value [1, 5]?
**A.** Its value is “did not observe any effect; also recorded: do not exhibit CRF-induced potentiation”.

**Q.** What about the “potentiation of NMDAR-mediated EPSCs” value [1, 4] of the same molecule?
**A.** Its value is “large, slowly developing, and transient potentiation; also recorded: exhibit CRF-induced potentiation”.

**Q.** What about the “hippocampal field potential vs. baseline” value ([2]; CRF 1 μM, 15 mins after CRF onset, n=4, P<0.05) of the same molecule?
**A.** The value was 143.0±7.7%.

**Q.** What about the “potentiation of AMPAR-mediated EPSCs” value [3] of the same molecule?
**A.** The value was “did not potentiate; also recorded: does not potentiate”.

**Q.** For `COc1ccc2c(c1)CC[C@@H]1[C@@H]2CC[C@]2(C)[C@@H](NCCCCCCN3C(=O)C=CC3=O)CC[C@@H]12` [U-73122], which “block” value ([1]; U-73122 1 μM for 10 min before and during CRF application, n=5) is on record?
**A.** Its value is “no potentiation”.

**Q.** And the “block” value ([1]; U-73122 1 μM for 10 min before and during CRF application, n=5, listed as U73122)?
**A.** The value was “is blocked”.

**Q.** Which “potentiation of NMDAR-mediated EPSCs” value [1, 4] does the source give for “ovine CRF: differs from human/rat CRF by 7 amino acids; binds CRF-R2, much lower affinity for CRF-BP” here?
**A.** Its value is “no potentiation”.

**Q.** What about the “potentiation of NMDAR-mediated EPSCs” value ([1]; peptide bath applied 1 μM for 8 min, large Ih (CRF-responding) dopamine neurons, listed as bovine CRF) of the same molecule?
**A.** The value was “does not induce potentiation”.

**Q.** And the “affinity for CRF-BP” value (CRF-BP)?
**A.** The value was “much lower affinity”.

**Q.** For `N[C@@H](CCC(=O)O)C(=O)O` [glutamate], which EC50 (NMDARs) is on record?
**A.** Its EC50 is about 1000 nM.

**Q.** With `CCCCN(CC)c1nc(C)nc2c1c(C)cn2-c1c(C)cc(C)cc1C` [CP-154,526] as the molecule, how does the “block” value ([1]; CP-154,526 3 μM for 15 min, CRF 1 μM, n=6) read?
**A.** Its value is “failed to block; also recorded: does not block”.

**Q.** And the “hippocampal field potential vs. baseline with CRF plus antagonist” value ([2]; CRF 1 μM plus 3 μM CP-154,526, n=5, P>0.05)?
**A.** Its value is 82.9±6.9%.

**Q.** Which results are given for “CRF fragment (6-33): CRF fragment that competes with CRF at the CRF-BP; CRF-BP inhibitor (ISLDLTFHLLREVLEMARAEQLAQQAHS; Corticoliberin; UniProt P06850 159-186, looked up, fragment)”?
**A.** block of CRF-induced potentiation of NMDAR-mediated EPSCs ([1]; CRF fragment (6-33) 1 μM for 10 min co-applied with CRF, n=5): did not potentiate; also recorded: inhibits; affinity for CRF-BP (CRF-BP): high-affinity binding
